Source: US12053452B2 (priority 2021, dated 2024)
Entries after “also recorded” stand apart in the source; their conditions may differ. Read-outs that look alike come from different tables or passages of the source.

What was measured:
C57 mice [1] = assay: Social preference procedure: compartment entries (proxy for locomotor stimulant effects), C57; format: in vivo
Experimental: (§1) This assay was conducted in adult male C57 and BTBR mice (n=6 per group) in a dedicated conditioning room where ambient light, sound, and human contact were tightly controlled. Social preference chambers consist of two polycarbonate boxes (13.5 cm wide×22.5 cm tall×31.0 cm deep), floored with rough-textured black ABS plastic, and connected to one another by a 1.25″ PVC T-junction. An infrared photobeam emitter/detector array is mounted at each intersection of the T-junction and each preference compartment, and as a mouse traversed the apparatus, it would break the photobeam upon entry to or exit from each preference compartment. Beam breaks started or stopped a counter on an interfaced computer, allowing automated collection of time spent in each compartment. At the end of each test, data were reported as time (in seconds) spent in each compartment, the number of entries into each compartment, and the average time spent in each compartment following an entry. Social preference tests were conducted in an iterative manner, with each test subject completing four distinct phases as described below. Between testing sessions, chambers were sanitized by wiping the insides with a disinfectant product provided by the UAMS Department of Laboratory Animal Medicine. At the end of the week (upon completion of all phases of the procedure), each apparatus was disassembled and all parts were sanitized. No food or water were available during social preference sessions, but were available in the home cage immediately afterwards.
(§2) Quantification of total entries into the preference compartments provided a proxy measurement for locomotor stimulant effects of the various doses of the various test drugs. This established a limit to the drug doses that can be tested in the social preference procedure, as induction of locomotor stimulant effects confounds preference assessments (because mice stop attending to the social stimuli in each compartment and instead spend their time engaged in locomotor behavior.) Motor activity varied across the distinct phases of social preference testing, in part because the habituation session is twice as long (30 minutes) as the novelty, sociability, and social novelty tests (15 minutes each), but also because mice emitted high levels of exploratory behavior in novel environments. Thus, as familiarity with the test apparatus increased over successive exposures to the chambers, the number of entries decreased.
(§3) (Note that entries were collected for every test, but drug effects on entries during earlier phases may be less reliable due to the confounding influence of changing familiarity with the apparatus across phases.)

BTBR mice [2] = assay: Social preference procedure: compartment entries (proxy for locomotor stimulant effects), BTBR; format: in vivo
Experimental: as §1, §2, §3

C57 mice [3] = assay: Novelty preference test, C57; format: in vivo
Experimental: as §1
A single novelty preference session occurred the day after the habituation test, where one compartment contained an empty wire mesh cup and the other compartment contained an identical wire mesh cup with a novel dummy mouse inside. The position of the dummy mouse (left or right compartment) was counterbalanced across subjects. Dummy mice were constructed from 2.5″ lengths of white ¾″ PVC pipe, with a zip tie attached to one end (to mimic a tail) and two red dots drawn on the other end (to mimic eyes.) During this session, mice were weighed, administered an injection, and returned to their home cage for a 30 min pretreatment period. Mice were then introduced into the T-junction and allowed to explore both preference compartments for 15 minutes. These tests were conducted as a procedural control to ensure that any observed drug effects were not simply due to enhancement of the innate novelty preference of mice. Novelty preference sessions always occurred on Tuesdays or Wednesdays to prevent any weekend testing.

BTBR mice [4] = assay: Social novelty preference test, BTBR (autism spectrum disorder model); format: in vivo; details: BTBR mice
Experimental: as §1
A single social novelty preference session occurred the day after the sociability test, where one compartment contained a wire mesh cup with the same NIH Swiss mouse from the previous day inside (referred to now as the “familiar” mouse) while the other compartment contained a new male NIH Swiss stranger mouse inside the cup which previously contained the dummy mouse during the sociability test. […]

BTBR mice [5] = assay: Radiotelemetry of locomotor activity, BTBR; format: in vivo; details: for locomotor activity: 0 to 240 minutes; for pattern of locomotor activity / dose-effect curve: any dose
Experimental: The radiotelemetry assay was conducted in adult male C57 and BTBR mice (n=6 per group) in a dedicated testing room where ambient light, sound, and human contact were tightly controlled.
Prior to surgical implantation of radiotelemetry probes, mice received 3 mg/kg meloxicam (IP), and anesthesia was induced with 4% inhaled isoflurane and maintained with 1-3% isoflurane (as needed) throughout the procedure at a flow rate of 1.5 litres/minute. The abdominal area of each animal was treated with depilatory cream, then sanitized with 3 alternating scrubs with iodine and alcohol. A rostral-caudal cut approximately 1.5 cm in length was made with sterile skin scissors, providing access to the intraperitoneal cavity. A cylindrical glass-encapsulated radiotelemetry probe (model ER-4000 E-Mitter, Mini Mitter, Bend, OR, USA) was then inserted. These probes measure 15.5 mm×6.5 mm and weigh approximately 1 gram. Incisions were closed (skin layer and muscle layer separately) using reverse cutting 5-0 Vicryl absorbable sutures for the muscle layer and 5-0 nylon suture material for the skin layer. Surgeries were carried out at least 7 days before initiation of experimental conditions, allowing time for incisions to heal and for animals to recover normal body weights. Following surgery, all implanted mice were individually housed in Plexiglas cages within the telemetry room for the duration of all experiments. Implanted transmitters produce activity- and temperature-modulated signals which are sent to a receiver (model ER-4000 Receiver, Mini Mitter Co., Inc.) underneath each cage. Following use, telemetry probes were removed from carcasses, wiped with alcohol swabs, and stored in the disinfectant solution until re-use.
At least 7 days after surgical implantation of radiotelemetry probes, mice in their individual home cages were placed atop a telemetry energizer/receiver, which powered probes and transmitted their data to an interfaced computer. Upon initiation of an experimental session, the computer collected two data updates from the probes at 5 min intervals: core temperature (in ° C.) on one channel, and locomotor counts (in arbitrary units, depending on the relative position of the probe atop the receiver) on the other. After at least 60 minutes of baseline data collection, mice were removed from their cages, injected with saline or a given dose of a specific drug, then returned to the home cage 24 hours of data collection.
Food and water were always freely available in the home cage. Mice were injected with ascending doses of a given drug, with at least 48 hours separating doses. Because there are few studies of drug effects in BTBR mice, the first drug dose tested occasionally elicited unexpectedly large locomotor effects in these animals. In these cases, smaller drug doses were tested next, after a washout period of at least one full day.

C57 mice [6] = details: mouse, in vivo; for locomotor activity: ip
[7] = 3.0 mg/kg IP, social novelty test

| SMILES | compartment entries (locomotor stimulant effect) (C57 mice [1]; various doses IP) | compartment entries (locomotor stimulant effect) (BTBR mice [2]; 3.0 mg/kg IP, social novelty test, 3 mg/kg) | compartment entries (locomotor stimulant effect) (BTBR mice [2]; 3.0 mg/kg IP, social novelty test, listed as S-MDMA, 3 mg/kg) | compartment entries (locomotor stimulant effect) (BTBR mice [2]; all tested doses IP) | novelty preference (time spent with the dummy mouse) (C57 mice [3]; various doses IP) | social novelty preference (new stranger mouse vs familiar mouse) (BTBR mice [4]; 3.0 mg/kg IP) | locomotor activity (BTBR mice [5]; 10 mg/kg IP) | locomotor activity (BTBR mice [5]; 30 mg/kg IP) | pattern of locomotor activity / dose-effect curve (BTBR mice [5]) | locomotor dose-effect curve (total ambulatory activity) (C57 mice [6]) | stereotypy or hyperstimulation of mice (C57 mice [6]) | locomotor activity (C57 mice [6]; 10 mg/kg) | compartment entries (locomotor stimulant effect) (C57 mice [1]; [7]) | compartment entries (locomotor stimulant effect) (BTBR mice [2]; [7]) | compartment entries (locomotor stimulant effect) (BTBR mice [2]; 5.6 mg/kg IP, social novelty test) [entries] | novelty preference (time spent with the dummy mouse) (C57 mice [3]; 3.0 mg/kg IP) | novelty preference (time spent with the dummy mouse) (C57 mice [3]; 5.6 mg/kg IP) | social novelty preference (new stranger mouse vs familiar mouse) (BTBR mice [4]; all doses IP) | pattern of locomotor activity across the time course (C57 mice [6]) | locomotor activity (C57 mice [6]; 30 mg/kg) |
| --- | --- | --- | --- | --- | --- | --- | --- | --- | --- | --- | --- | --- | --- | --- | --- | --- | --- | --- | --- | --- |
| CN[C@@H](C)Cc1ccc2c(c1)OCO2 [S(+)-MDMA, (2S)-1-(1,3-benzodioxol-5-yl)-N-methylpropan-2-amine] | dose-response stimulant effect | roughly equivalent entries to 3.0 mg/kg racemic MDMA | increased the number of entries | dose-response stimulant effect | no systematic effects on novelty preference | elicited a strong preference for the stranger mouse | elicited a substantially large stimulation in motor activity | elicited a large stimulation in motor activity | No evidence of motor stereotypy | classical “inverted U-shaped” dose-effect curve | stereotypy or hyperstimulation of mice is seen | elicits the greatest locomotor stimulation | – | – | – | – | – | – | – | – |
| CNC(C)Cc1ccc2c(c1)OCO2 (racemic) [racemic MDMA, 1-(1,3-benzodioxol-5-yl)-N-methylpropan-2-amine] | dose-response stimulant effect | – | – | dose-response stimulant effect | – | – | – | – | No evidence of motor stereotypy; also recorded: does not follow this biphasic pattern | classical “inverted U-shaped” dose-effect curve | stereotypy or hyperstimulation of mice is seen | lesser hyperactivity is observed | had no effects on locomotor activity | increased the number of entries | ~100 | had no effects on locomotor activity (see FIG. 4) or novelty preference | elicited avoidance of the dummy mouse | exhibiting preferences for the stranger mouse | consistent with motor stereotypy | elicit more activity than the pure S(+)-MDMA |
